Values quoted from earlier work as cited in patent publication US20130178603A1, “MULTI-MODE CANCER TARGETED NANOPARTICULATE SYSTEM AND A METHOD OF SYNTHESIZING THE SAME” (priority 2012, published 2013).

Settings: after I.V administration

Q: For `CN(Cc1cnc2nc(N)nc(N)c2n1)c1ccc(C(=O)N[C@@H](CCC(=O)O)C(=O)O)cc1` [MTX, methotrexate], which mean distribution half-life is on record?
A: 1.5 to 3.5 h
